Reference: patent US20240366607A1, “COMPOSITION FOR PREVENTION OR TREATMENT OF ATOPIC DERMATITIS COMPRISING AKT SIGNALING PATHWAY INHIBITOR AS ACTIVE INGREDIENT” (priority 2021, published 2024)

How the values were obtained:
[1] = tested on: normal skin tissue; experiment: MTT assay, cell viability in normal skin tissue; format: cell-based; conditions: for cell viability: normal skin tissue
Experimental: To determine the final concentration of the drug ipatasertib, normal skin tissue was seeded in a 96-well plate, and treated with ipatasertib at varying concentrations of 1 μM, 10 μM, 50 μM, 100 μM, and 200 μM. The safety and toxicity of the drug to the normal skin tissue were evaluated by measuring the absorbance at 540 nm.

[2] = tested on: DF-specific IgE; experiment: Serum total DF-specific IgE by ELISA in atopic dermatitis mouse model; format: in vivo; conditions: 100 μM
Experimental: (§1) Atopic skin lesions were induced in NC/Nga mice by treatment with HDM three times a week until 4 weeks after the start of the experiment, and then each mouse was treated with ipatasertib and/or 0.1% dexamethasone (200 μL) three times a week for another four weeks (FIG. 3). Control groups consisted of a non-HDM-treated group (3 animals), a HDM-treated group (3 animals), and a HDM-and 0.1% dexamethasone-treated group (3 animals, positive control group), and experimental groups were administered ipatasertib after HDM treatment. Then, in order to check changes in skin-specific T cells in each animal, single suspensions were prepared using the spleen, skin, and lymph nodes, and T-cells were stained using anti-CD3, anti-CD4, anti-CD8, and CD45 antibodies. Flow cytometry was performed on skin-specific T cells using anti-CD69 and anti-CD103 antibodies, thereby observing the changes in number and distribution of skin-specific T cells by the application of the drug.
(§2) Blood was collected from the mouse heart, and then serum total DF-specific IgE (ng/mL) (A450) was measured in a 96-well plate (Corning Inc., Corning, NY, USA) using the ELISA MAX™ Delux Set (BioLegend, San Diego, CA, USA) kit.
House dust mites are a common cause of allergy, and based on this fact, DF-specific IgE was measured.

[3] = tested on: T cells in skin-draining lymph nodes; experiment: FACS of T cell fractions in skin-draining lymph nodes of atopic dermatitis mouse model; format: in vivo
Experimental: as §1

[4] = tested on: skin-specific T cells; experiment: FACS of T cells using skin immune cells and skin lesions of atopic dermatitis patients; format: cell-based, human
Experimental: To verify the effect of the candidate drug on skin-specific T cells in human skin tissue, a single suspension was prepared using the skin from an atopic dermatitis patient. T cells were stained using anti-CD3, anti-CD4, anti-CD8 and anti-CD45 antibodies, and flow cytometry was performed on skin-specific T cells using anti-CD69 and anti-CD103 antibodies, thereby observing the changes in number and distribution of skin-specific T cells by the application of the drug.

[5] = tested on: skin tissue of NC/Nga mice; experiment: H&E staining of skin tissue of HDM-treated NC/Nga mice (eosinophil count, epidermal thickness); format: in vivo, mouse
Experimental: Data are expressed as mean±standard deviation (SD). **P<0.01, *P<0.05.
as §1
Patients with allergic diseases often have a blood eosinophil count that increased by more than 5%, and based on this fact, eosinophils were counted by hematoxylin and eosin (H&E) staining. […] In addition, when atopic dermatitis occurs, the skin thickens due to an excessive inflammatory response.

[6] = tested on: serum total IgE; experiment: Serum total IgE by ELISA in atopic dermatitis mouse model; format: in vivo
Experimental: as §1, §2
The changes in serum total IgE levels in atopic dermatitis mouse models by ipatasertib treatment were measured. […]

[7] = tested on: humanized avatar mouse model; experiment: Therapeutic effect in humanized avatar mouse model with HDM-induced atopic dermatitis; format: in vivo; conditions: applied to the back three times a week for one week after three weeks HDM
Experimental: (§3) PBMCs were obtained from blood samples isolated from atopic dermatitis patients, and then CD3+ T cells, which are pathogenic cells, and CD3-depleted PBMCs, which are antigen-presenting cells, were separated therefrom. Human PBMC cells obtained by this method were injected into an immunodeficient NSG mouse by two different routes of administration. That is, avatar mice were prepared by injecting CD3+ T cells, which are pathogenic cells, through intravenous injection, and CD3-depleted PBMCs through intradermal injection. After the hair on the back of the prepared avatar mouse was shaved, dead skin cells were removed using 3M film once every three days, and 100 mg of house dust mite ointment was applied to the back of the mouse for three weeks. Then, from week 4, the mouse was treated with house dust mite ointment plus ipatasertib to evaluate the therapeutic effect of ipatasertib (FIG. 14A).

[8] = tested on: skin-specific T cells in the skin; experiment: FACS of skin-specific T cell fractions in skin of atopic dermatitis mouse model; format: in vivo
Experimental: as §1

[9] = tested on: human T cells in the skin of the avatar mouse; experiment: Human T cell fractions in the skin of the avatar mouse; format: in vivo
Experimental: as §3

[10] = tested on: T cells in the spleen; experiment: FACS of T cell fractions in spleen of atopic dermatitis mouse model; format: in vivo
Experimental: as §1

[11] = tested on: NC/Nga mice with induced atopic dermatitis; experiment: HDM-induced atopic dermatitis in NC/Nga mice: skin lesions and SCORAD index; format: in vivo, mouse
Experimental: NC/Nga mice showing clinical and histological phenotypes similar to atopic dermatitis were used. To prepare atopic dermatitis animal models, atopic skin lesions were induced by treating mice with house dust mites (HDM), a representative trigger/aggravator of atopic dermatitis (FIG. 2).
as §1
To evaluate the effect of ipatasertib administration in NC/Nga mice with induced atopic dermatitis, atopic dermatitis was induced by applying house dust mite (HDM) ointment to the mouse's back three times a week for 4 weeks, and then ipatasertib drug was applied to the mouse's back three times a week for another 4 weeks. […] Each score was obtained by the Wilcoxon signed-rank test, and P<0.05 was considered statistically significant. Three mice per group were tested.

[12] = 100 μM, compared to 0.1% dexamethasone group

CC(C)NC[C@@H](C(=O)N1CCN(c2ncnc3c2[C@H](C)C[C@H]3O)CC1)c1ccc(Cl)cc1 [ipatasertib]
cell viability ([1]; 50 μM): ≥ 90% | cell viability ([1]; 100 μM): ≥ 90% | toxicity in normal skin tissue ([1]; up to 100 μM): no significant toxicity | total DF-specific IgE level [2]: significantly decreased | total DF-specific IgE level ([2]; compared to 0.1% dexamethasone group): significantly decreased even compared to that in the 0.1% dexamethasone group | fraction of T cells expressing CD69 among CD3+ CD4+ T cells [3]: tended to decrease | fraction of CD3+ CD4+ CD103+ T cells ([3]; 100 μM): statistically significantly lowest | proportion of CD3+ T cells ([3]; 100 μM): lowest proportion of CD3+ T cells | proportion of skin-specific T cells ([4]; 50 μM): significantly decreased | proportion of skin-specific T cells ([4]; 100 μM): significantly decreased | eosinophil count [5]: decreased depending on the ipatasertib concentration | epidermal thickness [5]: decreased as the concentration of ipatasertib increased | decrease in the total serum IgE level [6, 12]: significantly greater | serum total IgE level ([6]; ELISA, ipatasertib groups up to 100 μM): decreased in a dose-dependent manner | therapeutic effect against atopic dermatitis [7]: clinically significant therapeutic effect | proportions of CD3+, CD4+, CD69+, and CD103+ skin-specific T cells ([8]; 50 μM, skin): significantly decreased | proportions of CD3+, CD4+, CD69+, and CD103+ skin-specific T cells ([8]; 100 μM, skin): significantly decreased | CD69+ T cells and CD103+ T cells ([8]; skin tissues of the ipatasertib groups): statistically significantly decreased | proportions of skin-specific T cells ([8]; skin, compared to 0.1% dexamethasone-treated group): significantly decreased even compared to that in the 0.1% dexamethasone-treated group | proportion of human CD3 T cells ([9]; 100 μM, compared to control group): significantly decreased compared to that in the control group | proportions of human CD8 and CD4 cells ([9]; drug-treated group): significantly lower | CD69+ T cells and CD103+ T cells [10]: decreased statistically significantly | proportion of CD3+ and CD4+ T cells [10]: decreased in a dose-dependent manner | recovery of skin lesions ([11]; 100 μM, applied to the back three times a week for 4 weeks): most notable recovery | scoring atopic dermatitis (SCORAD) index [11, 12]: lower SCORAD index than the 0.1% dexamethasone-administered group | therapeutic effect on atopic dermatitis skin lesions ([11]; applied to the back three times a week for 4 weeks after 4 weeks HDM): significant therapeutic effect was observed in a drug concentration-dependent manner | wounds, dryness, and shedding ([11]; compared to positive control 0.1% dexamethasone): significantly reduced compared to the positive control group administered 0.1% dexamethasone | scoring atopic dermatitis (SCORAD) index ([11]; ipatasertib-administered groups, three mice per group): significantly decreased
